Reference: patent US10525148B2, “Systems and methods for preclinical models of metastases” (The Translational Genomics Research Institute, priority 2014, dated 2020)

Key:
[1] = tested on: PDX from CNS metastasis (spine) of lung adenocarcinoma; test: Tumor volume of patient-derived xenograft (lung adenocarcinoma spine metastasis) in NSG mice under treatment (FIG. 7, FIG. 8); format: in vivo; settings: for tumor growth (tumor volume) during treatment: PDX in NSG mice, daily oral gavage for 18 days, SAHA 100 mg/kg, PD0325901 20 mg/kg, vs vehicle
Excerpt: (§1) Immediately after surgical removal, fresh tissue was collected for heterotopic (flank) injection into NSG mice (NOD scid gamma mice—or mice that are on a NOD/ShiLtJ background with severe combined immune deficiency mutation and the IL2 receptor gamma chain deficiency). Excised patient tissue was placed in a culture dish with medium and minced into small pieces, such that minced tissue suspensions could be drawn through a 16-gauge needle. Minced tissues were placed in a conical tube, media was withdrawn, and matrigel was added to the wet tissue in a 1:1 volume ratio. Approximately 200 μl of the matrigel-tissue mixture was injected subcutaneously into the flanks of two to four mice, and tumors were allowed to develop until the tumors achieved a length of 1.0 to 2.0 cm in the longest dimension. Mice were then sacrificed by CO2 asphyxiation, and their flank tumors were immediately excised. Portions of each excised flank tumor were archived as frozen tissue and as paraffin-embedded tissue following formalin fixation. The remainder of each tumor was dispersed in DMEM, processed as described above and passed by injection into the flank of another NSG mouse.
In view of these changes in the patient's molecular profile, a treatment model was created. […] For example, in view of the G12C mutation in the KRAS gene and the additional amplification this same gene found in the subject's exome, a MEK inhibitor (i.e., a pharmaceutical that targets the mitogen-activated kinase kinase enzymes MEK1 and MEK2) was selected. In this experiment, the MEK inhibitor selected was PD0325901. In addition, the detection of the HDAC9 amplification drove the selection of a drug that has been previously shown efficacy of epigenetic therapy in metastatic lung cancer, suberanilohydroxamic acid or SAHA, which is a potent HDAC inhibitor.
After establishing which treatments were to be used in the case study, 15 animals comprising the PDX were divided into three groups. A first group received vehicle only via intraperitoneal injection each day for 18 days. A second group received SAHA (100 mg/kg) via oral gavage each day for 18 days and a third group received PD0325901 (20 mg/kg) each day for 18 days via oral gavage. Both during and after treatment, tumor volume was measured in each of the mice and the data is plotted in FIG. 7.
Additional experiments were conducted to investigate the potential impact of combination drugs. Referring now to FIG. 8, the drug treatment experiments described above were repeated with an additional pharmaceutical composition, 5-Azacytidine, which is a nucleoside analog that is an FDA-approved treatment for some forms of cancer. […]

[2] = have been shown; cited from earlier work
[3] = tested on: patient-derived xenograft of lung cancer metastasized to the central nervous system (KRAS mutation); test: Tumor weight of patient-derived xenograft of lung cancer CNS metastasis (FIG. 13); format: in vivo, mice; settings: treatment conditions with MEK inhibitor
Excerpt: as §1, with “Portions of each excised flank tumor were archived as frozen tissue and as paraffin-embedded tissue following formalin fixation. The remainder of each tumor was dispersed in DMEM, processed as described above and passed by injection into the flank of another NSG mouse.” left out
(§2) Referring next to FIGS. 12 and 13, samples from a different patient (i.e., a patient with lung cancer that metastasized to portions the central nervous system) that were analyzed using some aspects of the instant invention. […] As a result of this analysis, it was determined that a MEK inhibitor (e.g., PD0325901) should be employed in the patient-derived xenograft context to assess potential for therapeutic efficacy.

[4] = tested on: ERK phosphorylation; test: Immunohistochemistry with anti-phosphorylated ERK antibody (FIG. 14); format: in vivo
Procedure: FIG. 14 is an immunohistochemistry study of tissue from the patient whose samples were detailed in FIGS. 12 and 13. In this study, an anti-phosphorylated ERK antibody was used to assess ERK phosphorylation in the various treatment conditions.
Sections were mounted onto a glass slide and stained with reagents designed to detect proteins of interest by IHC staining. This allows samples of many or all of the tumor specimens to be stained at one time. IHC staining was performed to determine the presence or absence of specific proteins and was used to validate potential targets discovered by genome-wide experiments (as previously described).
as §2

Row | Structure (SMILES) | tumor growth (tumor volume) during treatment ([1]; FIG. 7) | blood-brain barrier penetration [2] | tumor volume growth, single agent and combinations with 5-Azacytidine ([1]; 5-Azacytidine 2.0 mg/kg intraperitoneal, combinations compared to SAHA and PD0325901 alone, FIG. 8) | rate of tumor growth after treatment stopped ([1]; after day 18, FIG. 7) | gains in tumor weight [3] | ERK phosphorylation 14 days after treatment ([4]; 14 days after treatment) | ERK phosphorylation in the metastasis cells during treatment ([4]; compared to vehicle alone)
1 | O=C(CCCCCCC(=O)Nc1ccccc1)NO [SAHA, suberanilohydroxamic acid] | reduced tumor growth | blood-brain barrier penetrant |  |  |  |  | 
2 | Nc1ncn([C@@H]2O[C@H](CO)[C@@H](O)[C@H]2O)c(=O)n1 [5-Azacytidine] |  |  | did not serve as an efficacious treatment |  |  |  | 
3 | O=C(NOC[C@H](O)CO)c1ccc(F)c(F)c1Nc1ccc(I)cc1F [PD0325901] | little to no tumor growth | blood-brain barrier penetrant |  | reduced compared to animals in the SAHA and control groups | most reduced gains in tumor weight | returned to vehicle-treatment levels | reduced ERK phosphorylation
